pEC50: −log10 of the molar value. Like-named read-outs stand apart in the source and are kept apart here.

In series [1] the target is T1, AhR (Homo sapiens, UniProt P35869).
T1 construct: cells that were stably transfected with a luciferase reporter gene; endogenous in cells; host or cells: HG2L7.5c1 (human)
T1 sequence (P35869 11-848): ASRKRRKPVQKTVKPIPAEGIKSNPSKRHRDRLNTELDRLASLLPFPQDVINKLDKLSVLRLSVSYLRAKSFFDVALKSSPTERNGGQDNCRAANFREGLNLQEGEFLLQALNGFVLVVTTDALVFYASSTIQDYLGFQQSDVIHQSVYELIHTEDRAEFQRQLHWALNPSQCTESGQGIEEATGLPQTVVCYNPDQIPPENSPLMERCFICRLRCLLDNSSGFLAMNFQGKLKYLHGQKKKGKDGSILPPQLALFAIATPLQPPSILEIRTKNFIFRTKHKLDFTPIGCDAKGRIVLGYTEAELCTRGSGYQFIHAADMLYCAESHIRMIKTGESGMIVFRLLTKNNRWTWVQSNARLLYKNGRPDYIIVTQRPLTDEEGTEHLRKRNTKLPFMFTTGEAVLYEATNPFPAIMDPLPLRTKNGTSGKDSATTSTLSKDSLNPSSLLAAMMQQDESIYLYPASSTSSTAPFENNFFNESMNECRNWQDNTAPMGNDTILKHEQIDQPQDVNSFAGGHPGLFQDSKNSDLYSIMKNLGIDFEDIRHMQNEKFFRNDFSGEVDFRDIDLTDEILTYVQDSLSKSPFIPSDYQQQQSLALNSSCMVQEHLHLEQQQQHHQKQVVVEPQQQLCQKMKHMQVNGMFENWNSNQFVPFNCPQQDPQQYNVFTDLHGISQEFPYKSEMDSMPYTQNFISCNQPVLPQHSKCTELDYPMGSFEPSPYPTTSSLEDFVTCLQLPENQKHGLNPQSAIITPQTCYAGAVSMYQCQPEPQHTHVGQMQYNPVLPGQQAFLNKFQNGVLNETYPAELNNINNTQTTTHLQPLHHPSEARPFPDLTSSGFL
The series can be described thus: AhR induction, luciferase reporter gene (CALUX), human HG2L7.5c1 cells. In kind it is cell-based. The conditions noted are these: 6 h incubation. For orientation: Reporter assays use an easily measured gene product as a stand-in for the process of interest.
Protocol: The synthesized alkaloids were evaluated for their ability to induce AhR in four different cell lines, more specifically in human (HG2L7.5c1), mouse (H1L7.5c3), rat (H4L7.5c2) and guinea pig (G16L7.5c1) cells that were stably transfected with a luciferase reporter gene [41]. The results were calculated in EC50 (M) and compared to those of dioxin (TCDD), the principal ligand of the receptor.
Human, mouse, rat and guinea pig cells were grown in 100 mm cell culture plates (Corning Glass Works; Corning, NY, USA) using a sterile technique, maintained in alpha-minimum essential media (α-MEM) supplemented with 10% (v/v) fetal bovine serum (FBS) and G418 (1 mg/mL), and incubated at >80% humidity and 37◦C. For the CALUX analysis, plates of stable cell clones (approximately 80–100% confluent) were trypsinized and resuspended in 20 mL α-MEM. An aliquot (100 μL) of the indicated cell suspension was added into sterile 96-well tissue culture plates (Corning), and the plates were incubated for 24 h prior to ligand exposure, allowing the cells to reach confluence. […] Luciferase activity was measured using an automated microplate luminometer (Anthos Lucy2, Anthos Labtec Instruments, Wals/Salzburg, Austria) in enhanced flash mode with the automatic injection of 50 μL of Promega-stabilized luciferase reagent.

Series [2] addresses T2, AhR (Cavia porcellus, UniProt Q6J287).
T2 construct: cells that were stably transfected with a luciferase reporter gene; endogenous in cells; host or cells: G16L7.5c1 (guinea pig)
T2 sequence (Q6J287 1-846): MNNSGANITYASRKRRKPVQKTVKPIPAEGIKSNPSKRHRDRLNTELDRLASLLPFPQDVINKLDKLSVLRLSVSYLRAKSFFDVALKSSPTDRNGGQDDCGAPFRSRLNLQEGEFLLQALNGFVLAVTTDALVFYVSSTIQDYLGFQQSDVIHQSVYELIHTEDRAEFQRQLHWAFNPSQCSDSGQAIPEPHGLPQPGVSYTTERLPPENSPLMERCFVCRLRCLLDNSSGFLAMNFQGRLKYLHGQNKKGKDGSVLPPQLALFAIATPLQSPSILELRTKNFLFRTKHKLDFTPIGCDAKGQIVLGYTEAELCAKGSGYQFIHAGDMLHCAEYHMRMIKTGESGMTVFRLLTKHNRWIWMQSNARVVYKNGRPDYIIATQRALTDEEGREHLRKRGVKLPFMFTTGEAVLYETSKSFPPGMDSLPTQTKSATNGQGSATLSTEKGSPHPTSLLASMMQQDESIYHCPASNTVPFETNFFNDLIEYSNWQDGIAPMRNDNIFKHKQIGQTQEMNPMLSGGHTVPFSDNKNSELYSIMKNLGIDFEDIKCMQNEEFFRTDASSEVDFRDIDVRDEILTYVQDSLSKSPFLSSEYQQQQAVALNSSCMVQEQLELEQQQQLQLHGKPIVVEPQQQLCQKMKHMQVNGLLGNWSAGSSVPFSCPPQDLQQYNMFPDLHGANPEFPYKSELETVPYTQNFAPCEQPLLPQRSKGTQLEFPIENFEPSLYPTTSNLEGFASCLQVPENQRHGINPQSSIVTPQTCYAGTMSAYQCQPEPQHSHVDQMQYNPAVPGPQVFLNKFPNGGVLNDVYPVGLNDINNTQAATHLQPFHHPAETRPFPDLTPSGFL
The series can be described thus: AhR induction, luciferase reporter gene (CALUX), guinea pig G16L7.5c1 cells. In kind it is cell-based. The conditions noted are these: 6 h incubation. The procedure: (§1) The activity on AhR of the synthesized compounds was evaluated in cells that were stably transfected with a luciferase reporter gene. They were tested in four different cell lines, namely in human (HG2L7.5c1), mouse (H1L7.5c3), rat (H4L7.5c2) and guinea pig (G16L7.5c1) cells.
(§2) The synthesized alkaloids were evaluated for their ability to induce AhR in four different cell lines, more specifically in human (HG2L7.5c1), mouse (H1L7.5c3), rat (H4L7.5c2) and guinea pig (G16L7.5c1) cells that were stably transfected with a luciferase reporter gene. The results were calculated in EC50 (M) and compared to those of dioxin (TCDD), the principal ligand of the receptor. The protocol followed is described below.
(§3) Human, mouse, rat and guinea pig cells were grown in 100 mm cell culture plates (Corning Glass Works; Corning, NY, USA) using a sterile technique, maintained in alpha-minimum essential media (α-MEM) supplemented with 10% (v/v) fetal bovine serum (FBS) and G418 (1 mg/mL), and incubated at >80% humidity and 37◦C. For the CALUX analysis, plates of stable cell clones (approximately 80–100% confluent) were trypsinized and resuspended in 20 mL α-MEM. An aliquot (100 μL) of the indicated cell suspension was added into sterile 96-well tissue culture plates (Corning), and the plates were incubated for 24 h prior to ligand exposure, allowing the cells to reach confluence. Prior to ligand addition, the wells were washed with 1 × phosphate-buffered saline (PBS), and then, cells were incubated with the indicated concentration of DMSO (10 μL/mL) or corresponding solutions of TCDD or tested compounds in DMSO for 6 h or 24 h at 37 °C. After incubation, the cells were washed twice with PBS, 100 μL of 1 × Lysis buffer (Promega; Madison, WI, USA) was added to each well, and the plate was placed on a plate shaker at room temperature until the cells were lysed (approximately 20 min). Luciferase activity was measured using an automated microplate luminometer (Anthos Lucy2, Anthos Labtec Instruments, Wals/Salzburg, Austria) in enhanced flash mode with the automatic injection of 50 μL of Promega-stabilized luciferase reagent. Examples of the induction curves of the tested compounds are available in the Supplementary Materials.

Series [3] has as its target T3, AhR (Rattus norvegicus, UniProt P41738).
T3 construct: cells that were stably transfected with a luciferase reporter gene; endogenous in cells; host or cells: H4L7.5c2 (rat)
T3 sequence (P41738 10-853): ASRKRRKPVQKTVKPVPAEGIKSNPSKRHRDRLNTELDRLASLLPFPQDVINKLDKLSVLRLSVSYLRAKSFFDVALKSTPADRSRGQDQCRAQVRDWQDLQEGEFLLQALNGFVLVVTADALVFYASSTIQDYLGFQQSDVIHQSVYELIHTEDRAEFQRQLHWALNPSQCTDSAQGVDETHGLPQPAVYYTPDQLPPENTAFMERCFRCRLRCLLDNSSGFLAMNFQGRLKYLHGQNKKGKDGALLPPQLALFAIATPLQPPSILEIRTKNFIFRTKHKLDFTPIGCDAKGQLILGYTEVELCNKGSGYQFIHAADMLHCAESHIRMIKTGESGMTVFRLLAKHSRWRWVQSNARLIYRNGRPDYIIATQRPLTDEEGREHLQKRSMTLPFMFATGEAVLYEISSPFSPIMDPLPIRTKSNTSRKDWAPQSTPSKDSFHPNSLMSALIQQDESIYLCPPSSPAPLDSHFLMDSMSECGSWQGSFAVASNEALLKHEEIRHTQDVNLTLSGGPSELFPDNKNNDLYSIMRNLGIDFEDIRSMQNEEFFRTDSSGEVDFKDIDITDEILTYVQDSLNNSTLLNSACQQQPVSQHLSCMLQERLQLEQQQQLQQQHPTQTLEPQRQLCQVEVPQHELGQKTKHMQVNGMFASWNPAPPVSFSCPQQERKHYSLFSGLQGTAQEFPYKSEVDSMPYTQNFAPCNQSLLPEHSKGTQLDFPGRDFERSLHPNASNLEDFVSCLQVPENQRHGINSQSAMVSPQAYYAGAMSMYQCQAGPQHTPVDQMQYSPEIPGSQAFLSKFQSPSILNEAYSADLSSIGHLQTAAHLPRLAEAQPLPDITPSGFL
The series can be described thus: AhR induction, luciferase reporter gene (CALUX), rat H4L7.5c2 cells. In kind it is cell-based. The conditions noted are these: 6 h incubation. The procedure:
as §1, §2, §3

Series [4] concerns the target T4, AhR (Mus musculus, UniProt P30561).
T4 construct: cells that were stably transfected with a luciferase reporter gene; endogenous in cells; host or cells: H1L7.5c3 (mouse)
In words: AhR induction, luciferase reporter gene (CALUX), mouse H1L7.5c3 cells. In kind it is cell-based. The procedure:
as §1, §2, §3

In series [5] the test system is AhR. Set-up: method as in PMID 31292477. The conditions noted are these: fold reduction vs 6-FICZ; cited from earlier work.
Where [6] appears, read: mouse H1L7.5c3 cells, 6 h incubation, read-out: EC50, 6 h Mouse.

T4 sequence (P30561 10-805 limits assumed): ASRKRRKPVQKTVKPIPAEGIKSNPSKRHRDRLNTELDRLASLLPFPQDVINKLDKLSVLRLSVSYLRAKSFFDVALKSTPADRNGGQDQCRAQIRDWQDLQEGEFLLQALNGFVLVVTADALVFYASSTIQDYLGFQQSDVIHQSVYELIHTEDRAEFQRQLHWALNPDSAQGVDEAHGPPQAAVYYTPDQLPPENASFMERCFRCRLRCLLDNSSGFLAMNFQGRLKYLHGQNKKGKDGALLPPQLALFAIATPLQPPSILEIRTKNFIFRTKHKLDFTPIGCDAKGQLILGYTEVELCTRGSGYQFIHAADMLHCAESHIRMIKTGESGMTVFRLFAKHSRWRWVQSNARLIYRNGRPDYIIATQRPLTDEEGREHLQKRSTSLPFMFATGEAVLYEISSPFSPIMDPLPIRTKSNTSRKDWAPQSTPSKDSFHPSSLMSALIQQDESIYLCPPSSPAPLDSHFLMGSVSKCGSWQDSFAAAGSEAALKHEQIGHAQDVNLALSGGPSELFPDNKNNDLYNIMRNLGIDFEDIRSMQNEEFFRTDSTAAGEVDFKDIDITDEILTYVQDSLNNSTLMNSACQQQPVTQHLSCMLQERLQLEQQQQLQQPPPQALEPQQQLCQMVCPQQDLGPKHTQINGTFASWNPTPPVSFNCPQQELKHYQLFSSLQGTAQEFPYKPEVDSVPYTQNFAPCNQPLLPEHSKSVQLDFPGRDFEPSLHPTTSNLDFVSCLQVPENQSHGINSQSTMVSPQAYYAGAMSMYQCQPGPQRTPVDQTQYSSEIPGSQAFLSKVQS
T4 sequence (P11499 whole entry partner): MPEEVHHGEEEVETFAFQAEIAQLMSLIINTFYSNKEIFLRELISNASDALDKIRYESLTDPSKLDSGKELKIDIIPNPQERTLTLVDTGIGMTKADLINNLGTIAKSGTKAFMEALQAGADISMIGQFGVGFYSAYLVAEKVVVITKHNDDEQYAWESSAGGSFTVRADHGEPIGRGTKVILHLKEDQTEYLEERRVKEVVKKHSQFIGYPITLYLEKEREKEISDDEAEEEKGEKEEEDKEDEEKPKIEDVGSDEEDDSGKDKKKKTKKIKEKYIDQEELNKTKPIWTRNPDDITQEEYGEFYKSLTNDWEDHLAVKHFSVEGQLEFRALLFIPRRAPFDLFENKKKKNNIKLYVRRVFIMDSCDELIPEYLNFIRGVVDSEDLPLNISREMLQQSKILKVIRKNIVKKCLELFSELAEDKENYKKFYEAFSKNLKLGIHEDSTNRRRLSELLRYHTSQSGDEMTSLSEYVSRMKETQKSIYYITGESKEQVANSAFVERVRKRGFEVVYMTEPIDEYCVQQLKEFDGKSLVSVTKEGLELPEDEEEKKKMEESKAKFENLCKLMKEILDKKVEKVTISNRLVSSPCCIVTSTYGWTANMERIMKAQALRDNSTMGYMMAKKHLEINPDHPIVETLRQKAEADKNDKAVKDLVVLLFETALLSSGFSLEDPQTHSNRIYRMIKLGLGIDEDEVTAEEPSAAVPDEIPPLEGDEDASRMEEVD
T4 sequence (O08915 whole entry partner): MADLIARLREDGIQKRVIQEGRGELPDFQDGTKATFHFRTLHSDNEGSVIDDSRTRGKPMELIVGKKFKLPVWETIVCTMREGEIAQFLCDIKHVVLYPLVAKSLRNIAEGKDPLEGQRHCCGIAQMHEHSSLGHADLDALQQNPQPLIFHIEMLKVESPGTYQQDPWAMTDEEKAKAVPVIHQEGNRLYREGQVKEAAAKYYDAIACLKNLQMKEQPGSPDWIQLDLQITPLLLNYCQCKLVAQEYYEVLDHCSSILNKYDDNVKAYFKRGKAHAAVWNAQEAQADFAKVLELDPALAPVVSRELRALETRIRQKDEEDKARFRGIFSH

By pEC50 is commonly meant −log10 of the EC50, conventionally taken in molar units. Turning to `Cc1c2[nH]c3ccccc3c2c(Br)c2[nH]c3ccccc3c12` [Compound 5, 6-Methyl-12-bromoindolo[3,2-b]carbazole], the pEC50 was 9.48 in series [1], 10.00 in series [2], 10.22 in series [3] and 9.04 in series [4].
Take `Cc1c2[nH]c3ccccc3c2cc2[nH]c3ccccc3c12` [Compound 3, 6-methylindolo[3,2-b]carbazole]: the negative logarithm of the EC50 (pEC50) was 9.51 in series [1], 10.04 in series [2], 10.23 in series [3] and 9.04 in series [4] (setting [6]).
On the same counts, the results for `Clc1cc2c(cc1Cl)Oc1cc(Cl)c(Cl)cc1O2` [TCDD, reference compound] are 9.24, 10.00, 10.23 and 10.00.
Turning to `O=Cc1c2[nH]c3ccccc3c2cc2[nH]c3ccccc3c12` [Compound 1, 6-Formylindolo[3,2-b]carbazole], the pEC50 in series [2] was 9.24; in series [3], 10.10; in series [4] (setting [6]) it was 9.32.
As to `OCc1c2[nH]c3ccccc3c2cc2[nH]c3ccccc3c12` [Compound 4, 6-Hydroxymethylindolo[3,2-b]carbazole], the negative logarithm of the EC50 (pEC50) is 8.34 in series [1], 8.24 in series [2], 9.33 in series [3] and 9.04 in series [4] (setting [6]). Besides, the “reduced activity in comparison to 6-FICZ” value in series [5] was “more than 10 folds”.
With `c1ccc2c(c1)[nH]c1cc3c(cc12)[nH]c1ccccc13` [Compound 2, indolo[3,2-b]carbazole], the pEC50 in series [1] is 9.19; in series [2] it was 9.76; in series [3] it was 11.02; in series [4] (setting [6]), 9.01.

These data come from article PMC11820409, “Synthesis and Evaluation of the AhR Activity of Indolo[3,2-b]carbazole Derivatives” (Molecules, 2025).
